This experiment concerns the target T1, Human HM74A (Homo sapiens, UniProt Q8TDS4).
T1 construct: expressed in transfected cells; P2 membrane fractions
Nature of the experiment: [35S]-GTPγS binding assay on HM74A membranes (10 μl and 50 μl formats). The format is biochemical. Particulars: 10 μl and/or 50 μl assay, in which they were tested; +/−0.3 log unit; read-out: pEC50 in the [35S]-GTPγS binding assays (converted). The method, then:
For transient transfections, HEK293T cells (HEK293 cells stably expressing the SV40 large T-antigen) were maintained in DMEM containing 10% foetal calf serum and 2 mM glutamine. Cells were seeded in 90 mm culture dishes and grown to 60-80% confluence (18-24 h) prior to transfection. Human HM74A (GenBank™ accession number AY148884) was subcloned in to a mammalian expression vector (pcDNA3; Invitrogen) and transfected using Lipofectamine reagent. For transfection, 9 μg of DNA was mixed with 30 μl Lipofectamine in 0.6 ml of Opti-MEM (Life Technologies Inc.) and was incubated at room temperature for 30 min prior to the addition of 1.6 ml of Opti-MEM. Cells were exposed to the Lipofectamine/DNA mixture for 5 h and 6 ml of 20% (v/v) foetal calf serum in DMEM was then added. Cells were harvested 48 h after transfection. Pertussis toxin treatment was carried out by supplementation into media at 50 ngml^−1 for 16 h. All transient transfection studies involved co-transfection of receptor together with the Gi/o G protein, Go1α.
For generation of stable cell lines the above method was used to transfect CHO-K1 cells seeded in six well dishes grown to 30% confluence. These cells were maintained in DMEM F-12 HAM media containing 10% foetal calf serum and 2 mM glutamine. 48 h post-transfection the media was supplemented with 400 μg/ml Geneticin (G418, Gibco) for selection of antibiotic resistant cells. Clonal CHO-K1 cell lines stably expressing HM74A were confirmed by [^35S]-GTPγS binding measurements, following the addition of nicotinic acid.
P2 membrane preparation—Plasma membrane-containing P2 particulate fractions were prepared from cell pastes frozen at −80° C. after harvest. All procedures were carried out at 4° C. Cell pellets were resuspended in 1 ml of 10 mM Tris-HCl and 0.1 mM EDTA, pH 7.5 (buffer A) and by homogenisation for 20 s with a Ultra Turrax followed by passage (5 times) through a 25-gauge needle. Cell lysates were centrifuged at 1,000 g for 10 min in a microcentrifuge to pellet the nuclei and unbroken cells and P2 particulate fractions were recovered by microcentrifugation at 16,000 g for 30 min. P2 particulate fractions were resuspended in buffer A and stored at −80° C. until required.
[^35S]-GTPγS binding—assays were performed at room temperature in 384-well format based on methods described previously, (Wieland, T. and Jakobs, K. H. (1994) Methods Enzymol. 237, 3-13). Briefly, the dilution of standard or test compounds were prepared and added to a 384-well plate in a volume of 10 μl. Membranes (HM74A or HM74) were diluted in assay buffer (20 mM HEPES, 100 mM NaCl, 10 mM MgCl2, pH7.4) supplemented with saponin (60 μg/ml), Leadseeker WGA beads (Amersham; 250 μg/well) and 10 μM GDP, so that the 20 μl volume added to each well contains 5 μg of membranes. [^35S]-GTPγS (1170 Ci/mmol, Amersham) was diluted (1:1500) in assay buffer and 20 μl added to each well. Following the addition of the radioligand, the plates were sealed, pulse spun and incubated for 4 hours at room temperature. At the end of the incubation period the plates were read on a Leadseeker machine (VIEWLUX PLUS; Perkin-Elmer) to determine the levels of specific binding.
These assays were refined by reducing the final assay volume to 10 μl. For this 10 μl assay a revised protocol was used. This involved the use of only 100 nl of standard or test compound per well of a 384-well plate and 1.5 μg membrane and 100 μg Leadseeker WGA beads. For the low volume protocol, membrane, beads and [^35S]-GTPγS were mixed together and then 10 μl of this mix were dispensed to each well. Incubation and plate read were identical for the 10 μl and 50 μl assays.
All exemplified compounds were tested in one or both of the [^35S]-GTPγS binding assays described above (i.e. the 10 μl and 50 μl assays).
Data was analysed by curve fitting as carried out using a Four Parameter Logistical equation using the XC50 software package (max 2 points deleted from any one curve). […]
A general note: GTPγS resists hydrolysis and so accumulates on activated G proteins.

Consider seven compounds from patent publication US20100179128A1, “XANTHINE DERIVATIVES AS SELECTIVE HM74A AGONISTS” (priority 2005, published 2010).

Structures are written as SMILES.

T1 sequence (Q8TDS4 whole entry): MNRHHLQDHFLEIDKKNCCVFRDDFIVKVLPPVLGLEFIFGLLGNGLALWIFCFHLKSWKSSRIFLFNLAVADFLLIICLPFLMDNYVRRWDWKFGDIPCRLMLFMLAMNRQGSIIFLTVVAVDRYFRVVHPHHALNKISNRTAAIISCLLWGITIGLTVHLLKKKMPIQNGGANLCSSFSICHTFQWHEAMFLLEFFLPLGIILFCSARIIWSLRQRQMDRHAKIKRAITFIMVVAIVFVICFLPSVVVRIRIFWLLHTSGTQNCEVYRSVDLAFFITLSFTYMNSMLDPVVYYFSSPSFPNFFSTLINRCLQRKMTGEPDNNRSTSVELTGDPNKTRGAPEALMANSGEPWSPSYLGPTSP

Regarding `CN1CCN(CCCn2c(=O)n(CCCc3nc(Cc4ccc(F)cc4F)no3)c(=O)c3[nH]c(Cl)nc32)CC1` [8-chloro-1-(3-{3-[(2,4-difluorophenyl)methyl]-1,2,4-oxadiazol-5-yl}propyl)-3-[3-(4-methyl-1-piperazinyl)propyl]-3,7-dihydro-1H-purine-2,6-dione], the EC50 was more than 50.1 µM.
With `CN(C)CCCn1c(=O)n(CCCc2nc(Cc3ccc(F)cc3F)no2)c(=O)c2[nH]c(Cl)nc21` [8-chloro-1-(3-{3-[(2,4-difluorophenyl)methyl]-1,2,4-oxadiazol-5-yl}propyl)-3-[3-(dimethylamino)propyl]-3,7-dihydro-1H-purine-2,6-dione] the figure was more than 50.1 µM.
As for `O=c1c2[nH]c(Cl)nc2n(CCN2CCCC2)c(=O)n1CCCc1nc(Cc2ccc(F)cc2F)no1` [8-chloro-1-(3-{3-[(2,4-difluorophenyl)methyl]-1,2,4-oxadiazol-5-yl}propyl)-3-[2-(1-pyrrolidinyl)ethyl]-3,7-dihydro-1H-purine-2,6-dione], the EC50 was more than 50.1 µM.
In the case of `O=c1c2[nH]c(Cl)nc2n(CCN2CCCCCC2)c(=O)n1CCCc1nc(Cc2ccc(F)cc2F)no1` [8-chloro-1-(3-{3-[(2,4-difluorophenyl)methyl]-1,2,4-oxadiazol-5-yl}propyl)-3-[2-(hexahydro-1H-azepin-1-yl)ethyl]-3,7-dihydro-1H-purine-2,6-dione] it was more than 50.1 µM; in that of `O=c1c2[nH]c(Cl)nc2n(CCN2CCCCC2)c(=O)n1CCCc1nc(Cc2ccc(F)cc2F)no1` [8-chloro-1-(3-{3-[(2,4-difluorophenyl)methyl]-1,2,4-oxadiazol-5-yl}propyl)-3-[2-(1-piperidinyl)ethyl]-3,7-dihydro-1H-purine-2,6-dione], more than 50.1 µM.
With `CN(C)CCn1c(=O)n(CCCc2nc(Cc3ccc(F)cc3F)no2)c(=O)c2[nH]c(Cl)nc21` [8-chloro-1-(3-{3-[(2,4-difluorophenyl)methyl]-1,2,4-oxadiazol-5-yl}propyl)-3-[2-(dimethylamino)ethyl]-3,7-dihydro-1H-purine-2,6-dione] the figure was more than 50.1 µM.
For `CN(C)C(C)(C)Cn1c(=O)n(CCCc2nc(Cc3ccc(F)cc3F)no2)c(=O)c2[nH]c(Cl)nc21` [8-chloro-1-(3-{3-[(2,4-difluorophenyl)methyl]-1,2,4-oxadiazol-5-yl}propyl)-3-[2-(dimethylamino)-2-methylpropyl]-3,7-dihydro-1H-purine-2,6-dione], the EC50 was more than 50.1 µM.
